Here are results for one substance from article PMC8876959, “Comparative Evaluation of Radiochemical and Biological Properties of ^131I- and [^99mTc]Tc(CO)3-Labeled RGD Analogues Planned to Interact with the αvβ3 Integrin Expressed in Glioblastoma” (Pharmaceuticals, 2022).

The subject of one series is C6 cells. Put plainly: In vitro specific binding to C6 cells (block with excess non-labeled peptide). The class given is cell-based, rat. To be noted: 4 h. As for the experimental part: The specific binding of the radiopeptides to C6 cells was evaluated in 12-well adherent plates, containing 2.0 × 10^5 cells per well. For the specific binding study (unblock), supplemented DMEM-F12 medium containing 1.66 nmol of the [^131I]I-GRGDYV or 8.88 nmol of the [^99mTc]Tc(CO) 3-GRGDHV was added in the wells. On the other hand, for the non-specific binding study (block), an excess of 1000× of the respective non-radiolabeled peptide (competitor) was added to the supplemented DMEM-F12 medium containing the radiopeptide in each well. In both cases, the plates were incubated at 37 °C in a humidified atmosphere containing 5% CO2 for 4 h and then, the supernatant was removed. Each well was washed with PBS, which was joined to the respective supernatant. Finally, the cells were removed by trypsinization and the contents were placed in microtubes. Each well was washed again with PBS, which was joined to the respective trypsinized cells. Cells and supernatants were counted in the above-mentioned automatic gamma counter.

Series [1] relates to tumor-bearing glioblastoma brain homogenate (model). The series is described as follows: Binding and internalization in brain homogenate of glioblastoma model rats. The arrangement: species or system rat. As to conditions: 37 °C, n = 7. As for the experimental part:
(§1) An aliquot containing 2 × 10^6 C6 cells in supplemented DMEM-F12 culture medium (450 µL) was added to a vial and incubated with 10 nmol of the radiolabeled peptide at 37 °C with gentle agitation. The studies were evaluated at 1, 4 and 24 h (n = 7 for each time point). Then, the vials were centrifuged (604× g for 5 min). The radioactivities of the pellet and supernatant were separately evaluated using an automatic Wizard 3 2480 gamma counter (Perkin Elmer; Norwalk, CT, USA). The percentage of the bound fraction was calculated by Equation (1). (1) % bound fraction=Pellet radioactivity (cpm)/Pellet radioactivity (cpm)+supernatant radioactivity (cpm)×100
(§2) In the sequence, a second radioactivity determination was performed. For that, pellets were resuspended using 0.5 mL of acid buffer (0.2 M acetic acid in 0.5 M NaCl solution; pH 2.8) and maintained at room temperature for 5 min to remove the radiolabeled molecule attached to the cell membrane surface. Then, the vials were centrifuged (1677× g for 5 min). The pellet and supernatant were separated and their radioactivities were measured using the above-mentioned automatic gamma counter. The percentage of the internalized fraction of radiopeptides was estimated based on the ratio between the activity contained in the precipitate and the supernatant and calculated by Equation (2):(2) % internalized fraction=Pellet radioactivity (cpm)/Pellet radioactivity (cpm)+supernatant radioactivity (cpm)×100
Adult male Sprague Dawley rats (280–320 g) were maintained under controlled environmental conditions (12 h light-dark cycle; constant temperature 21 ± 2 °C), with free access to water and food. Tumorigenic glioblastoma cells were implanted in the right frontal cortex, following specific coordinates (referred to bregma): anteroposterior = 1.0 mm; lateral = 3.0 mm; depth = 5.0 mm. An aliquot of culture medium (10 µL) containing 1 × 10^6 C6 cells in suspension was injected slowly (1 µL/min) using a Hamilton syringe positioned on a stereotaxic surgery frame. In the control group, only the culture medium, without cells, was injected. An interval of 20 days after cell inoculation was allowed for tumor development.
Brain homogenates were prepared at the concentration of ~10 mg of wet tissue in 1000 µL of PBS (pH 7.4). Normal brain tissue (control) and tumor-bearing brain tissue (model) were used. A 25 µL aliquot (1.2 MBq/nmol) of each radiopeptide was added to 200 µL of freshly prepared homogenates (n = 7). The homogenates containing the radiolabeled peptides were incubated at 37 °C for 1, 4 and 24 h. Binding and internalization fractions were determined as described in Section 3.11.

A short description of series [2]: RP-HPLC retention time (used as an indication of hydrophobicity). The class given is physicochemical. To be noted: C18 column, 0.1% TFA:H2O (A), 60% acetonitrile/0.1% TFA:H2O (B), 5-95% B in 30 min, 1.0 mL/min; radioactivity detector (slight delay versus UV signal). The method, then:
RP-HPLC analyzes were performed on a Proeminence LC-20A system (Shimadzu; Kyoto, Japan). The column selected was Vydac C18 150 × 4.6 mm, with a particle size of 5 μm, a pore size of 300 Å. Chromatograms were performed at λ = 220 nm. Peaks were eluted using solvent systems composed of 0.1% TFA:H2O as solvent A and 60% acetonitrile/0.1% TFA:H2O as solvent B, on a gradient of 5–95% of solvent B at a flow rate of 1.0 mL·min^−1 for 30 min (n = 3).
RP-HPLC analyzes were performed on a 1290 Infinity II UHPLC system (Agilent Technologies; Saint Clair, CA, USA) fitted with a radioactivity detector (Eckert & Ziegler; Berlin, Germany) and Open Lab ECM data system (Agilent Technologies; Saint Clair, CA, USA) to confirm the yield and purity of both radiolabeled peptides. Analyzes were performed using a Phenomenex C18 column (150 × […]; 5 µm particle size; 300 Å pore size), detection at λ = 220 nm, using 0.1% TFA:H2O as solvent A and 60% acetonitrile/0.1% TFA:H2O as solvent B. A gradient of 5% to 95% of solvent B in 30 min was used at a flow rate of 1.0 mL·min^−1.

A short description of series [3]: Partition coefficient (n-octanol/water). To be noted: shake-flask, n-octanol/water (1:1), vortexed, 1 h at rest, centrifuged; gamma counter; mean ± SD, n = 6 (method: n = 5). The class given is physicochemical. The method, then: A fraction (100 μL) of the radiopeptide was added to a water/n-octanol (1:1) mixture. The mixture was vigorously vortexed and kept at rest for 1 h. Then, it was centrifuged at 1677× g for 5 min. Equal samples from both aqueous/organic phases were collected and their radioactivities were measured in an automatic Wizard 3 2480 gamma counter (Perkin Elmer; Norwalk, CT, USA) to determine log P values (n = 5).

The next series deals with C6 tumorigenic cells. Put plainly: Binding and internalization in C6 tumorigenic cells. The class given is cell-based, rat. To be noted: 37 °C; for Bound fraction: 2 × 10^6 cells, 10 nmol radiopeptide. As for the experimental part:
The C6 cells were incubated at 37 °C in a humidified atmosphere containing 5% CO2 and maintained in culture using Dulbecco’s Modified Eagle Medium (DMEM)—F12 (Gibco; Gaithersburg, MD, USA) supplemented with 10% fetal bovine serum (Sigma-Aldrich; Darmstadt, Germany) and 1% glutamine (Sigma-Aldrich; Darmstadt, Germany). Cells were grown to 75% confluence and then harvested by trypsinization (0.04% trypsin/EDTA). After centrifugation (151× g for 5 min), the cells were resuspended in DMEM—F12 to a final concentration of […] for the development of the glioblastoma animal model.
as §1, §2

Setting [4] is: glioblastoma model brain homogenate, 24 h.

One may read the Log P as the decadic logarithm of the partition coefficient of the neutral form, usually between octanol and water. A high value points to higher lipophilicity.

As for [^99mTc]Tc(CO)3-GRGDHV, the “Binding to C6 cells (unblock)” value with C6 cells (2.0 × 10^5 cells per well, 37 °C, 1.66 nmol [131I]I-GRGDYV or 8.88 nmol [99mTc]Tc(CO)3-GRGDHV, mean ± SD) is 0.61 ± 0.07%. Further, in the series on C6 cells (1000× excess of the respective non-radiolabeled peptide, 37 °C, mean ± SD), the “Binding to C6 cells with excess of non-radiolabeled peptide (block)” value is 0.33 ± 0.04%. Moreover, the “Reduction of binding by excess of non-radiolabeled peptide” value in the series with C6 cells (block versus unblock, C6 cells) was ~ 46%. For the same substance, the Bound fraction in series [1] (glioblastoma model brain homogenate (~10 mg/1000 µL PBS pH 7.4), 1 h) was ~ 50%; in series [1] (setting [4]) it was ~ 78%; in the series with C6 tumorigenic cells (1 h, n = 7), ~ 22%; in the series with C6 tumorigenic cells (4 h, mean ± SD, n = 7), 23.47% ± 1.78; in the series with C6 tumorigenic cells (24 h, n = 7) it was ~ 8%. In addition, the Internalized fraction in series [1] (glioblastoma model brain homogenate, 1 h) is on record as ~ 79%; in series [1] (setting [4]) it was ~ 98%; in the series with C6 tumorigenic cells (1 h, acid buffer wash pH 2.8, n = 7), ~ 34%; in the series on C6 tumorigenic cells (4 h, acid buffer wash pH 2.8, mean ± SD, n = 7) it was 54.24% ± 3.99; in the series with C6 tumorigenic cells (24 h, acid buffer wash pH 2.8, n = 7), ~ 74%. In addition, the “RP-HPLC retention time (Rt), radiolabeled peptide” value in series [2] is given as 17.80 min. In series [3], the “Log P” value was −1.13 ± 0.14.
